Type in all cases: cell-based
One experiment has as its target T1, human TLR7 (Homo sapiens, UniProt Q9NYK1).
T1 construct: host or cells: HEK-Blue cells (HEK293-derived reporter line)
T1 sequence (Q9NYK1 27-1049): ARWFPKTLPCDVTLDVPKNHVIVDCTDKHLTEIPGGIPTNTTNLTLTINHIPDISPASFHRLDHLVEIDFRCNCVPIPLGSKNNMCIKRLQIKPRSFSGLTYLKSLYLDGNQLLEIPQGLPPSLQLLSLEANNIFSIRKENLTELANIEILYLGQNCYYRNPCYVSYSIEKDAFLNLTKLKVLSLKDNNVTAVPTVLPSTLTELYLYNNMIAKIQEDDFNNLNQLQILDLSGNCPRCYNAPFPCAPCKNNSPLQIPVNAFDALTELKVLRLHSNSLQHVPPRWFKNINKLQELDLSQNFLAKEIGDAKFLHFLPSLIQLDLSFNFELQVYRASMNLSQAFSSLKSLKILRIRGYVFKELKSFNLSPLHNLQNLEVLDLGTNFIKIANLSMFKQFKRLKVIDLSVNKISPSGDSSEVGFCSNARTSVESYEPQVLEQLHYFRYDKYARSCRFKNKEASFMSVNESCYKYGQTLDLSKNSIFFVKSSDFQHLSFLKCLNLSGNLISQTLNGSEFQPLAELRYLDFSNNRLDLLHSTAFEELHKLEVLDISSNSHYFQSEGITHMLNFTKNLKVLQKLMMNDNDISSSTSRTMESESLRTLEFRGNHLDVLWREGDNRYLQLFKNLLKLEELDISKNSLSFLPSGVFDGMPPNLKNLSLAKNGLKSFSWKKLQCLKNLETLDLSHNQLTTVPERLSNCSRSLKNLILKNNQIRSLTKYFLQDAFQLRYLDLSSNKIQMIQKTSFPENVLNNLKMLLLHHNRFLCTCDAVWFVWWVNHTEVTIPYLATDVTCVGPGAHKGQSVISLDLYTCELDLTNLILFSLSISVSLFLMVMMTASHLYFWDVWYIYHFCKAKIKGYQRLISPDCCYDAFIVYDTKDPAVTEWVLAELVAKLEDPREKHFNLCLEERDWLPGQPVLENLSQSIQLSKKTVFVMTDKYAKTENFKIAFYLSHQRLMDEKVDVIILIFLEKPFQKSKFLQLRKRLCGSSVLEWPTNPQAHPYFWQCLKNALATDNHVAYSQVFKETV
The experiment in a line: TLR7 inhibition reporter assay (HEK-Blue cells, SEAP reporter, gardiquimod stimulation). Particulars: HEK-Blue cells overexpressing human TLR7, SEAP reporter, gardiquimod 7.5 μM. In a few lines:
(§1)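 HEK-Blue cells overexpressing the receptor, with NF-κB/AP-1-driven SEAP, were pre-treated 30 min at room temperature with compound (0.05 nM–50 μM), then stimulated with gardiquimod 7.5 μM (TLR7), R848 15.9 μM (TLR8) or ODN2006 5 nM (TLR9). SEAP was read after 22 h at 37 °C as percent inhibition.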

A further experiment deals with T2, human TLR8 (Homo sapiens, UniProt Q9NR97).
T2 construct: host or cells: HEK-Blue cells (HEK293-derived reporter line)
T2 sequence (Q9NR97 27-1041): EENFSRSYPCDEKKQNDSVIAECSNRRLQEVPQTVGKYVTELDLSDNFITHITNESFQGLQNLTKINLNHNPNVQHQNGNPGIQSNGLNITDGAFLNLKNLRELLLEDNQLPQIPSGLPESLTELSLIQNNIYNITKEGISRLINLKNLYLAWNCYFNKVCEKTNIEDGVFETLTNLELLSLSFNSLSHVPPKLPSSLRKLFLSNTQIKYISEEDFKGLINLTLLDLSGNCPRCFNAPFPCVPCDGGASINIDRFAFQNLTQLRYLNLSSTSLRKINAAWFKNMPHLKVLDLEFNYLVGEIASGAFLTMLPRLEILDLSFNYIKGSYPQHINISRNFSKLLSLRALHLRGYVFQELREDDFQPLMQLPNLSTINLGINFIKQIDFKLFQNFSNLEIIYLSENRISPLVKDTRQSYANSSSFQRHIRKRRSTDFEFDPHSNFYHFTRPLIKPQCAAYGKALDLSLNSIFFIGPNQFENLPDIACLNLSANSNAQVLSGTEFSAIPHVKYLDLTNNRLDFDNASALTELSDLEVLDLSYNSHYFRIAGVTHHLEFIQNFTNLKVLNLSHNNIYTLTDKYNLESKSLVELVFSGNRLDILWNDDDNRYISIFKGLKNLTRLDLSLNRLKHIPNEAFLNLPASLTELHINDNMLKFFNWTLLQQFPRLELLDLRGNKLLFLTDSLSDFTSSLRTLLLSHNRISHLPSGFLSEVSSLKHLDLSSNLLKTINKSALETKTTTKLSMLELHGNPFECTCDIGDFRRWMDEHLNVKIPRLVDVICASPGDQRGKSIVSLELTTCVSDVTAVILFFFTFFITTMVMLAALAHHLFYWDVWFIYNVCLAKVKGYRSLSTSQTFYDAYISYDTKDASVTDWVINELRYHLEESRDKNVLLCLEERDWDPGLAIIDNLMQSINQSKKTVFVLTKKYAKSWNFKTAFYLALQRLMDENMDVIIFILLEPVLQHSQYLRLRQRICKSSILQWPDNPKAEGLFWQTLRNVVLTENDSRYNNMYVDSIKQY
The experiment in a line: TLR8 inhibition reporter assay (HEK-Blue cells, SEAP reporter, R848 stimulation). As to conditions: HEK-Blue cells overexpressing human TLR8, SEAP reporter, R848 15.9 μM. In outline:
as §1

In a further experiment the target is T3, human TLR9 (Homo sapiens, UniProt Q9NR96).
T3 construct: host or cells: HEK-Blue cells (HEK293-derived reporter line)
T3 sequence (Q9NR96 26-1032): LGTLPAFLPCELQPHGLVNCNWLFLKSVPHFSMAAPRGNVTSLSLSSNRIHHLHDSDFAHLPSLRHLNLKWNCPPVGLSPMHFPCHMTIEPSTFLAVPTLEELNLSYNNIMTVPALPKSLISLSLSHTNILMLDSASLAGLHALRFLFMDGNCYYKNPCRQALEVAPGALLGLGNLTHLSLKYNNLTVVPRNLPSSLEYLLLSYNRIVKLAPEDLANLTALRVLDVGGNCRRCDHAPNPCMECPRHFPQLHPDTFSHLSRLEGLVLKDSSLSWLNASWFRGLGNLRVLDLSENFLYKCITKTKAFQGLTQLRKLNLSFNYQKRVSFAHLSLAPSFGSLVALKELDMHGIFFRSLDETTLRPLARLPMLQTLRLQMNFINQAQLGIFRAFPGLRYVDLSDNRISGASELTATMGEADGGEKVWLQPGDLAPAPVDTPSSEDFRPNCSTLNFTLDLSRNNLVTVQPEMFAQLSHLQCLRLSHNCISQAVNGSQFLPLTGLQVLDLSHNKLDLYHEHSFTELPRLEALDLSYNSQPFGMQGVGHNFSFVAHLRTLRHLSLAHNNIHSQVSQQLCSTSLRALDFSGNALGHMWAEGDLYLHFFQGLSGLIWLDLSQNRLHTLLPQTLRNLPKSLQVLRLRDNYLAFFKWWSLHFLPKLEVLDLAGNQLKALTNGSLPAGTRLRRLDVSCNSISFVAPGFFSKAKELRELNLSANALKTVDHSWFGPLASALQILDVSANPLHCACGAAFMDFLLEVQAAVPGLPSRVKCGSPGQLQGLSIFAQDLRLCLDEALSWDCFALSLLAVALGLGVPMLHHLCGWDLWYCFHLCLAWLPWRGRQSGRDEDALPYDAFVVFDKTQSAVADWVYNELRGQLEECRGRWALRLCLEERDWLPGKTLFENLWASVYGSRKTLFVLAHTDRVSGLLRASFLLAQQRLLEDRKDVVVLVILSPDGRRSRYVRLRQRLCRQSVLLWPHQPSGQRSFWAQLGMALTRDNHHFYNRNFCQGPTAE
The experiment in a line: TLR9 inhibition reporter assay (HEK-Blue cells, SEAP reporter, ODN2006 stimulation). As to conditions: HEK-Blue cells overexpressing human TLR9, SEAP reporter, ODN2006 5 nM. In outline: as §1

For the molecule `CC(C)c1c(-c2ccn3nccc3n2)[nH]c2ccc(C3CCN(CC(=O)N(C)C)CC3)cc12` [Example 425, 2-(4-(3-isopropyl-2-(pyrazolo[1,5-a]pyrimidin-5-yl)-1H-indol-5-yl)piperidin-1-yl)-N,N-dimethylacetamide], the IC50 against human TLR7 lay in the range of 0.1 to 1 µM; against human TLR8, 0.1 to 1 µM; against human TLR9, 1 to 50 µM.

For `Cc1nc2cc(-c3[nH]c4ccc(C5CCN(C(=O)CN(C)C)CC5)cc4c3C(C)C)cc(C)c2o1` [Example 491, 2-(dimethylamino)-1-(4-(2-(2,7-dimethylbenzo[d]oxazol-5-yl)-3-isopropyl-1H-indol-5-yl)piperidin-1-yl)ethan-1-one], the IC50 at human TLR7 is 0.1 to 1 µM; against human TLR8, 1 to 50 µM; at human TLR9, 1 to 50 µM.

In the case of `CC(C)c1c(-c2ccnc3[nH]ccc23)[nH]c2ccc(C3CCNCC3)cc12` [Example 1, 4-(3-isopropyl-5-(piperidin-4-yl)-1H-indol-2-yl)-1H-pyrrolo[2,3-b]pyridine], the IC50 on human TLR7 is less than 0.1 µM; against human TLR8, less than 0.1 µM; against human TLR9 it was 1 to 50 µM.

`COc1cc(-c2[nH]c3ccc(C4CCN(CC(=O)N(C)C)CC4)cc3c2C(C)C)cc2nc(C)nn12` [Example 348, 2-(4-(3-isopropyl-2-(5-methoxy-2-methyl-[1,2,4]triazolo[1,5-a]pyridin-7-yl)-1H-indol-5-yl)piperidin-1-yl)-N,N-dimethylacetamide]: the 50% inhibitory concentration (IC50) on human TLR7 was less than 0.1 µM; at human TLR8, less than 0.1 µM; at human TLR9, 1 to 50 µM.

For `CCN(CC)C(=O)C1CCCN(CC(=O)N2CCC(c3ccc4[nH]c(-c5ccnc6[nH]ccc56)c(C(C)C)c4c3)CC2)C1` (stereo not drawn) [Example 568, N,N-diethyl-1-(2-(4-(3-isopropyl-2-(1H-pyrrolo[2,3-b]pyridin-4-yl)-1H-indol-5-yl)piperidin-1-yl)-2-oxoethyl) piperidine-3-carboxamide], the results for the concentration for half-maximal inhibition (IC50) on human TLR7, at human TLR8 and on human TLR9 were less than 0.1 µM, less than 0.1 µM and 1 to 50 µM, respectively.

Regarding `CCc1c(-c2ccnc3[nH]ncc23)[nH]c2ccc(C3CCNCC3)cc12` [Example 229, 4-(3-ethyl-5-(piperidin-4-yl)-1H-indol-2-yl)-1H-pyrazolo[3,4-b]pyridine], the IC50 against human TLR7 was less than 0.1 µM; on human TLR8 it was less than 0.1 µM; at human TLR9, 0.1 to 1 µM.

Consider `CC(C)c1c(-c2cnc3c(cnn3C)c2)[nH]c2ccc(C3CCN(CC(C)(C)O)CC3)cc12` [Example 764, 1-(4-(3-isopropyl-2-(1-methyl-1H-pyrazolo[3,4-b]pyridin-5-yl)-1H-indol-5-yl)piperidin-1-yl)-2-methylpropan-2-ol], for which the values for the IC50 at human TLR7, on human TLR8 and against human TLR9 were less than 0.1 µM, less than 0.1 µM and 1 to 50 µM, respectively.

Take `Cc1cc(-c2[nH]c3ccc(C4CCN(CC(=O)N(C)C)CC4)cc3c2C(C)C)cn2cc(C(=O)N(C)CCO)nc12` [Example 344, 6-(5-(1-(2-(dimethylamino)-2-oxoethyl)piperidin-4-yl)-3-isopropyl-1H-indol-2-yl)-N-(2-hydroxyethyl)-N,8-dimethylimidazo[1,2-a]pyridine-2-carboxamide]: the IC50 is less than 0.1 µM on human TLR7, less than 0.1 µM against human TLR8 and 1 to 50 µM against human TLR9.

Regarding `Cc1cc2nnnn2cc1-c1[nH]c2ccc(C3CCN(Cc4ncn(C)n4)CC3)cc2c1C(C)C` [Example 886, 6-(3-isopropyl-5-(1-((1-methyl-1H-1,2,4-triazol-3-yl)methyl)piperidin-4-yl)-1H-indol-2-yl)-7-methyltetrazolo[1,5-a]pyridine], the half-inhibitory concentration (IC50) against human TLR7 was less than 0.1 µM; at human TLR8 it was less than 0.1 µM; against human TLR9, 1 to 50 µM.

As to `COc1cc(-c2[nH]c3ccc(C4CCNCC4)cc3c2C(C)C)c2ccccc2n1` [Example 105, 4-(3-isopropyl-5-(piperidin-4-yl)-1H-indol-2-yl)-2-methoxyquinoline], the IC50 against human TLR7 was less than 0.1 µM; on human TLR8, 0.1 to 1 µM; at human TLR9, 1 to 50 µM.

Turning to `Cc1cc(-c2[nH]c3ccc(C4CCN(C(=O)CN(C)C)CC4)cc3c2C(C)C)cc2cccnc12` [Example 529, 2-(dimethylamino)-1-(4-(3-isopropyl-2-(8-methylquinolin-6-yl)-1H-indol-5-yl)piperidin-1-yl) ethan-1-one], the concentration for half-maximal inhibition (IC50) against human TLR7 was less than 0.1 µM; against human TLR8, less than 0.1 µM; at human TLR9, 1 to 50 µM.

As to `Cc1nc2c(-c3[nH]c4ccc(C5CCNCC5)cc4c3C)ccnc2[nH]1` [Example 232, 2-methyl-7-(3-methyl-5-(piperidin-4-yl)-1H-indol-2-yl)-3H-imidazo[4,5-b]pyridine], the IC50 is 1 to 50 µM against human TLR7, 1 to 50 µM against human TLR8 and 0.1 to 1 µM against human TLR9.

Turning to `CC(C)c1c(-c2nc3c(N)ncnc3[nH]2)[nH]c2ccc(C3CCNCC3)cc12` [Example 8, 8-(3-isopropyl-5-(piperidin-4-yl)-1H-indol-2-yl)-9H-purin-6-amine], the IC50 was 0.1 to 1 µM at human TLR7, greater than 3.13 µM against human TLR8 and 1 to 50 µM against human TLR9.

(Values after patent publication US11739098B2 (BRISTOL-MYERS SQUIBB COMPANY, priority 2017, dated 2023).)
